Values after ≈ are worked out from the molar mass of the structure shown.
What was measured:
E. coli strain 25922 = assay: MIC by broth microdilution, E. coli strain 25922; type: cell-based; settings: Escherichia coli, 25922, E. coli strain 25922; read-out: Ec 25922 (MIC)
How it was run: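 CLSI broth microdilution in cation-adjusted Mueller-Hinton broth, inoculum about 5×10^5 CFU/mL, 10% DMSO from the diluted series, 20 h at 35-37° C. MIC is the lowest concentration preventing visible growth, read by eye and at 600 nm.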

E. coli containing KPC-2 = assay: MIC by broth microdilution, E. coli containing KPC-2 (Ec KPC2 Iso); type: cell-based; settings: Escherichia coli, read-out: Ec KPC2 Iso (MIC), E. coli containing KPC-2 (carbapenemase from Klebsiella pneumoniae)
How it was run: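 Host E. coli BW25113 pspB carrying multicopy pBAD18-kan plasmid with constitutive TEM-promoter KPC-2 expression (periplasmic signal sequence); broth microdilution per CLSI in cation-adjusted Mueller-Hinton broth, inoculum ~5×10^5 CFU/mL, compounds twofold serially diluted from DMSO masters (10% DMSO in dilution series added).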

| Structure (SMILES) | MIC (E. coli strain 25922) | MIC (E. coli containing KPC-2) |
| --- | --- | --- |
| N=C(N)c1ccc(OC[C@H](O/N=C(\C(=O)N[C@@H]2C(=O)N(S(=O)(=O)O)[C@@H]2Cn2cncn2)c2csc(N)n2)C(=O)O)cc1 [Example 107, (S)-2-(((Z)-(2-(((2R,3S)-2-((1H-1,2,4-triazol-1-yl)methyl)-4-oxo-1-sulfoazetidin-3-yl)amino)-1-(2-aminothiazol-4-yl)-2-oxoethylidene)amino)oxy)-3-(4-carbamimidoylphenoxy)propanoic acid] | 0.25 µg/mL (≈ 0.402 µM) | 0.25 µg/mL (≈ 0.402 µM) |
| Nc1nc(/C(=N/OC2(C(=O)O)CC2)C(=O)N[C@@H]2C(=O)N(S(=O)(=O)O)[C@@H]2CN2CCNC2=O)cs1 [Example 108, 1-(((Z)-(1-(2-aminothiazol-4-yl)-2-oxo-2-(((3S,4R)-2-oxo-4-((2-oxoimidazolidin-1-yl)methyl)-1-sulfoazetidin-3-yl)amino)ethylidene)amino)oxy)cyclopropanecarboxylic acid] | 0.125 µg/mL (≈ 0.242 µM) | ≤ 0.06 µg/mL |
| NCc1nn(C[C@@H]2[C@H](NC(=O)/C(=N\OC3(C(=O)O)CC3)c3csc(N)n3)C(=O)N2S(=O)(=O)O)nc1CN [Example 109, 1-(((Z)-(1-(2-aminothiazol-4-yl)-2-(((2R,3S)-2-((4,5-bis(aminomethyl)-2H-1,2,3-triazol-2-yl)methyl)-4-oxo-1-sulfoazetidin-3-yl)amino)-2-oxoethylidene)amino)oxy)cyclopropanecarboxylic acid] | 0.125 µg/mL (≈ 0.224 µM) | 0.25 µg/mL (≈ 0.448 µM) |
| NCCNC(=O)NC[C@@H]1CN(C[C@@H]2[C@H](NC(=O)/C(=N\OC3(C(=O)O)CC3)c3csc(N)n3)C(=O)N2S(=O)(=O)O)C(=O)O1 [Example 111, 1-(((Z)-(2-(((2R,3S)-2-(((R)-5-((3-(2-aminoethyl)ureido)methyl)-2-oxooxazolidin-3-yl)methyl)-4-oxo-1-sulfoazetidin-3-yl)amino)-1-(2-aminothiazol-4-yl)-2-oxoethylidene)amino)oxy)cyclopropanecarboxylic acid] | ≤ 0.06 µg/mL | ≤ 0.06 µg/mL |
| Nc1nc(/C(=N/OC2(C(=O)O)CC2)C(=O)N[C@@H]2C(=O)N(S(=O)(=O)O)[C@@H]2Cn2ncc(CNC3CCNCC3)n2)cs1 [Example 112, 1-(((Z)-(1-(2-aminothiazol-4-yl)-2-oxo-2-(((3S,4R)-2-oxo-4-((4-((piperidin-4-ylamino)methyl)-2H-1,2,3-triazol-2-yl)methyl)-1-sulfoazetidin-3-yl)amino)ethylidene)amino)oxy)cyclopropanecarboxylic acid] | 0.5 µg/mL (≈ 0.816 µM) | 0.5 µg/mL (≈ 0.816 µM) |
| CC(C)(O/N=C(\C(=O)N[C@@H]1C(=O)N(S(=O)(=O)O)[C@@H]1CN1CCC1=O)c1csc(N)n1)C(=O)O [Example 113, 2-(((Z)-(1-(2-aminothiazol-4-yl)-2-oxo-2-(((3S,4R)-2-oxo-4-((2-oxoazetidin-1-yl)methyl)-1-sulfoazetidin-3-yl)amino)ethylidene)amino)oxy)-2-methylpropanoic acid] | 4 µg/mL (≈ 7.93 µM) | 4 µg/mL (≈ 7.93 µM) |
| N=C(N)NCCCNCc1cnn(C[C@@H]2[C@H](NC(=O)/C(=N\OC3(C(=O)O)CC3)c3csc(N)n3)C(=O)N2S(=O)(=O)O)n1 [Example 114, 1-(((Z)-(1-(2-aminothiazol-4-yl)-2-(((2R,3S)-2-((4-(((3-guanidinopropyl)amino)methyl)-2H-1,2,3-triazol-2-yl)methyl)-4-oxo-1-sulfoazetidin-3-yl)amino)-2-oxoethylidene)amino)oxy)cyclopropanecarboxylic acid] | 0.25 µg/mL (≈ 0.398 µM) | ≤ 0.06 µg/mL |
| CN(CCCN)Cc1cnn(C[C@@H]2[C@H](NC(=O)/C(=N\OC3(C(=O)O)CC3)c3csc(N)n3)C(=O)N2S(=O)(=O)O)n1 [Example 115, 1-(((Z)-(2-(((2R,3S)-2-((4-(((3-aminopropyl)(methyl)amino)methyl)-2H-1,2,3-triazol-2-yl)methyl)-4-oxo-1-sulfoazetidin-3-yl)amino)-1-(2-aminothiazol-4-yl)-2-oxoethylidene)amino)oxy)cyclopropanecarboxylic acid] | 0.125 µg/mL (≈ 0.208 µM) | 0.25 µg/mL (≈ 0.416 µM) |
| CNCCCNCc1cnn(C[C@@H]2[C@H](NC(=O)/C(=N\OC3(C(=O)O)CC3)c3csc(N)n3)C(=O)N2S(=O)(=O)O)n1 [Example 116, 1-(((Z)-(1-(2-aminothiazol-4-yl)-2-(((2R,3S)-2-((4-(((3-(methylamino)propyl)amino)methyl)-2H-1,2,3-triazol-2-yl)methyl)-4-oxo-1-sulfoazetidin-3-yl)amino)-2-oxoethylidene)amino)oxy)cyclopropanecarboxylic acid] | 0.25 µg/mL (≈ 0.416 µM) | 0.125 µg/mL (≈ 0.208 µM) |
| CNCCNCc1cnn(C[C@@H]2[C@H](NC(=O)/C(=N\OC3(C(=O)O)CC3)c3csc(N)n3)C(=O)N2S(=O)(=O)O)n1 [Example 117, 1-(((Z)-(1-(2-aminothiazol-4-yl)-2-(((2R,3S)-2-((4-(((2-(methylamino)ethyl)amino)methyl)-2H-1,2,3-triazol-2-yl)methyl)-4-oxo-1-sulfoazetidin-3-yl)amino)-2-oxoethylidene)amino)oxy)cyclopropanecarboxylic acid] | 0.5 µg/mL (≈ 0.852 µM) | 1 µg/mL (≈ 1.7 µM) |
| NCCCCNCc1cnn(C[C@@H]2[C@H](NC(=O)/C(=N\OC3(C(=O)O)CC3)c3csc(N)n3)C(=O)N2S(=O)(=O)O)n1 [Example 118, 1-(((Z)-(2-(((2R,3S)-2-((4-(((4-aminobutyl)amino)methyl)-2H-1,2,3-triazol-2-yl)methyl)-4-oxo-1-sulfoazetidin-3-yl)amino)-1-(2-aminothiazol-4-yl)-2-oxoethylidene)amino)oxy)cyclopropanecarboxylic acid] | 0.5 µg/mL (≈ 0.832 µM) | 0.25 µg/mL (≈ 0.416 µM) |
| N=C(NCCCN)NCc1cnn(C[C@@H]2[C@H](NC(=O)/C(=N\OC3(C(=O)O)CC3)c3csc(N)n3)C(=O)N2S(=O)(=O)O)n1 [Example 119, 1-(((Z)-(2-(((2R,3S)-2-((4-((3-(3-aminopropyl)guanidino)methyl)-2H-1,2,3-triazol-2-yl)methyl)-4-oxo-1-sulfoazetidin-3-yl)amino)-1-(2-aminothiazol-4-yl)-2-oxoethylidene)amino)oxy)cyclopropanecarboxylic acid] | 0.25 µg/mL (≈ 0.398 µM) | 0.25 µg/mL (≈ 0.398 µM) |
| N=C(NCCCN)NCc1cn(C[C@@H]2[C@H](NC(=O)/C(=N\OC3(C(=O)O)CC3)c3csc(N)n3)C(=O)N2S(=O)(=O)O)nn1 [Example 120, 1-(((Z)-(2-(((2R,3S)-2-((4-((3-(3-aminopropyl)guanidino)methyl)-1H-1,2,3-triazol-1-yl)methyl)-4-oxo-1-sulfoazetidin-3-yl)amino)-1-(2-aminothiazol-4-yl)-2-oxoethylidene)amino)oxy)cyclopropanecarboxylic acid] | 0.25 µg/mL (≈ 0.398 µM) | 0.5 µg/mL (≈ 0.795 µM) |
| CC(C)(O/N=C(\C(=O)N[C@@H]1C(=O)N(S(=O)(=O)O)[C@@H]1CN1C(=O)CCC1=O)c1csc(N)n1)C(=O)O [Example 121, 2-(((Z)-(1-(2-aminothiazol-4-yl)-2-(((2R,3S)-2-((2,5-dioxopyrrolidin-1-yl)methyl)-4-oxo-1-sulfoazetidin-3-yl)amino)-2-oxoethylidene)amino)oxy)-2-methylpropanoic acid] | 0.25 µg/mL (≈ 0.469 µM) | 0.25 µg/mL (≈ 0.469 µM) |
| C[N+](C)(C)CCCNCc1cnn(C[C@@H]2[C@H](NC(=O)/C(=N\OC3(C(=O)O)CC3)c3csc(N)n3)C(=O)N2S(=O)(=O)O)n1 [Example 123, 3-(((2-(((2R,3S)-3-((Z)-2-(2-aminothiazol-4-yl)-2-((1-carboxycyclopropoxy)imino)acetamido)-4-oxo-1-sulfoazetidin-2-yl)methyl)-2H-1,2,3-triazol-4-yl)methyl)amino)-N,N,N-trimethylpropan-1-aminium] | 1 µg/mL | 0.5 µg/mL |
